Test results reported in patent publication US20230263816A1, “PHARMACEUTICAL COMPOSITIONS FOR DELIVERY OF REMDESIVIR BY INHALATION” (priority 2020, published 2023).
In brackets after ≈: the same amount, converted by molar mass. Where two headings read alike, the source gives them in different places.

Key:
[1] = cited from earlier work
SAR-CoV-2 = conditions: cited from earlier work
SARS-CoV-2 = conditions: Pruijssers et al., 2020, cited from earlier work
[2] = Solubility in simulated lung fluid (SLF); type: physicochemical; conditions: for solubility in SLF: 25° C., 24 h
Experimental: The composition and preparation of simulated lung fluid (SLF) were adapted from Hassoun's study (Hassoun et al., 2018). SLF contained dipalmitoylphosphotidylcholine (DPPC), cholesterol, albumin, transferrin, ascorbic acid and Hank's balanced salt solution (HBSS). The SLF was prepared by two steps including a preparation of liposomal dispersion and freeze drying as described in Hassoun et al. (Hassoun et al., 2018). In the first step, a liposomal dispersion was prepared by mixing 2.12 mL of 25 mg/mL DPPC and 5 μL of 200 mg/mL cholesterol in chloroform. Then, the solution was dried using an evaporator until the dry film was obtained. The thin film of lipid was dispersed by adding 8 mL of 57 mg/mL bovine serum albumin in water, 1 mL of 15 mg/mL transferrin in water, and 88.5 μL of 10 mM ascorbate solution. The mixture was sonicated until it fully dispersed. The dispersion was adjusted to 10 mL by adding 1M HBSS). The dispersion was frozen at −20° C. for 6 h, and primary dried in the lyophilizer at −40° C. for 30 h and ramp to 25° C. for 12 h and finally secondary dried at 25° C. for 20 h. The lyophilized SLF was stored at 2-8° C. and reconstituted with purified water upon solubility and dissolution testing.
The excess amount of powder was added in SLF until precipitation occurred. Then the samples were shaken on the orbital shaker at 250 rpm and 25° C. for 24 h. The samples were collected and centrifuged at 13,000 rpm for 15 min. The supernatants were collected and then diluted with DMSO/acetonitrile (10/90). The samples were centrifuged again at 13,000 rpm for 15 min to separate proteins in SLF. The supernatants were collected and analyzed by HPLC.

[3] = rats; cited from earlier work

For N#C[C@@]1(c2ccc3c(N)ncnn23)O[C@H](CO)[C@@H](O)[C@H]1O [GS-441524], the half-life ([1]; human, in vivo, iv) is given as “approximately 24.5 h”, the EC50 (SAR-CoV-2; human airway epithelial (HAE), Agostini et al., 2018) is given as 0.05243 mg/L and the EC50 (SAR-CoV-2; read-out: EC50) is given as 0.18 µM. The EC50 (SARS-CoV-2; Calu3 2B4 cells, read-out: EC50) was 0.62 µM and the EC50 (SARS-CoV-2; Calu-3 2B4 cells) was 0.1806 mg/L.

With CCC(CC)COC(=O)[C@H](C)N[P@](=O)(OC[C@H]1O[C@@](C#N)(c2ccc3c(N)ncnn23)[C@H](O)[C@@H]1O)Oc1ccccc1 [amorphous remdesivir, remdesivir] the “increase in solubility compared to crystalline neat remdesivir” value [2] was 20 fold, the “solubility of amorphous versus crystalline remdesivir” value [2] was “about 20 times” and the “solubility in SLF” value [2] was 0.59 ± 0.01 mg/mL (≈ 979 µM).

In the case of CCC(CC)COC(=O)[C@H](C)N[P@](=O)(OC[C@H]1O[C@@](C#N)(c2ccc3c(N)ncnn23)[C@H](O)[C@@H]1O)Oc1ccccc1 [crystalline remdesivir, remdesivir], the “solubility in SLF” value [2] is reported as 0.03 ± 0.001 mg/mL (≈ 49.8 µM).

In the case of CCC(CC)COC(=O)[C@H](C)N[P@](=O)(OC[C@H]1O[C@@](C#N)(c2ccc3c(N)ncnn23)[C@H](O)[C@@H]1O)Oc1ccccc1 [remdesivir], the half-life ([1]; humans, multiple IV administrations once a day) is given as “about 1 h” and the “half-life of remdesivir in plasma” value [3] is given as “less than 0.9 min”.
